In US5110810A, “Method of using dehydroepiandrosterone and dehydroepiandrosterone-sulfate as inhibitors of platelet aggregation” (Virginia Commonwealth University, priority 1991, dated 1992):
Where two headings read alike, the source gives them in different places.

What was measured:
platelets [1] = settings: cited from earlier work
platelets [2] = experiment: In vitro turbidimetric arachidonic acid induced platelet aggregation in platelet rich plasma; assay type: cell-based, human
Source text: (§1) Referring now to the drawings and, more particularly to FIG. 1, two sample aggregometer tracings are shown which help illustrate the methods used by the inventors to analyze turbidimetric data. Aggregometers are well known research tools and the aggregometer used in the experiments discussed below was a Sienco dual chamber platelet aggregometer. A blood sample which is to be analyzed is drawn from volunteer donors into a 1/8 volume of acid-citrate-dextrose (an anticoagulant used to keep platelets from aggregation during preparative stages). For the in vitro experiments discussed below, the volunteer donors had not taken any medication for ten days prior to submitting the blood sample. The blood is then centrifuged at low speed to sediment red and white blood cells, leaving a fraction enriched in platelets called platelet-rich plasma (PRP). The platelet count was determined electronically using a Coulter counter The final concentration of platelets for a test sample was adjusted to 250,000 platelets/μL fluid by the addition of platelet-poor plasma.
(§2) The aggregometer acts essentially like a spectrophotometer to measure the turbidity of the platelet suspension as a function of the change in light transmission recorded over time. Prior to making turbidimetric measurements, the test samples were heated to 37° C. (body temperature) and stirred at a constant rate. Inhibitors and/or agonists are added to the test sample in very small quantities so as to minimize the dilutional effect. An important object of the present invention was showing that DHEA and DHEA-S are inhibitors of platelet aggregation. Arachidonic acid, available from Biodata Corp of Hatboro, Pennsylvania, is a well known agonist of platelets (i.e., the addition of arachidonic acid to platelets causes aggregation). In the experiments, DHEA and DHEA-S were added to the test sample prior to adding the arachidonic acid so that the platelets could be mixed with the inhibitor before any aggregation initiation caused by the arachidonic acid agonist occurred. Typically, 0.2-0.4 mM arachidonic acid was used to start platelet aggregation.
The aggregometer was calibrated such that the test samples, which contained 250,000 platelets/μl fluid, allowed 0% light transmission while Platelet Poor Plasma, which is essentially devoid of platelets, allowed 100% light transmission. […] The time to the nadir in the aggregometer tracing is called the "LAG" time. After the LAG time has passed, the platelets undergo a rapid phase of aggregation.
(§3) The overall rate of aggregation is determined in part by the LAG time and in part by the rate of the rapid aggregation phase. While the LAG time can easily be determined from the turbidimetric spectra, the rate of rapid aggregation phase is technically difficult to measure. […] Therefore, the experiments discussed below have primarily utilized the T1/2MAX measurement to quantitatively analyze the affect of DHEA and DHEA-S as platelet aggregation inhibitors.
DHEA-S is available from the Sigma Chemical Company in powder form. In the in vitro experiments, blood samples were taken from several young healthy donors taking no medications. Platelet rich plasma was prepared as described above for each test sample and the concentration of platelets in the test samples was adjusted to 250,000 platelets/μl fluid. Aggregation of the platelets in the test samples was initiated with 0.2 to 0.4 […] of arachidonic acid (there was a variability in the amount of arachidonic acid used among donors; however, the amount used was near the minimum that would consistently initiate aggregation). In all aggregation experiments 0.3 cc of platelet rich plasma was used and the test sample volume placed in the aggregometer ranged between 10 μl to 30 μl.
In the first in vitro experiment, different concentrations of DHEA-S were added to test samples and the rate of aggregation was monitored after the addition of arachidonic acid. […]

[3] = test system: Thromboxane A2 (TxA2) synthesis, measured as Thromboxane B2 (TxB2); experiment: Thromboxane production (TxB2 RIA) in platelet rich plasma after arachidonic acid; assay type: cell-based, human; settings: for TxB2 produced: approximately three minutes incubation
Source text: As discussed above, activation of platelets by arachidonic acid typically results in the generation of Thromboxane A2 (TxA2) The extent of TxA2 generated can be measured by radioimmunoassay (RIA) of its stable breakdown product Thromboxane B2 (TxB2) (see, JW Aiken, "Arachidonic Acid Metabolism and the Cardiovascular System" in Platelets and Prostaglandins in Cardiovascular Disease, J Mehta, P Mehta eds. Futura Publishing Co., Mt. Kisco, NY 1981). […] The platelet aggregation reaction was terminated at maximal aggregation or at four minutes, which ever occurred […], by the addition of 10 μM Indomethacin and 5.0 mM ethylenediaminetetraacetic acid (EDTA). Indomethacin and EDTA are commercially available reagents and were obtained from the Sigma Chemical Company. After adding the Indomethacin and EDTA reagents, the cuvettes containing the test sample were immediately placed on ice to cool. The test samples were then spun at a high speed in an Epindorf, Model 5415 micro-centrifuge, available from Brinkman Instruments, to sediment the platelets. Afterwards, plasma was removed from each sample. The TXB2 content was then assayed using commercial RIA kits available from Advanced Magnetics, Inc. of Massachussetts.

[4] = test system: cardiovascular disease mortality; settings: increase in (endogenous) DHEA-S level of 100 μg/dL; adjusted for other risk factors; p <0.05; cited from earlier work
myocardial infarction = settings: large clinical studies; cited from earlier work
platelets [5] = settings: cited from earlier work; remark: listed apart in the source
[6] = human patients; cited from earlier work
[7] = test system: oxidant injury in isolated rabbit lungs; settings: cited from earlier work
atherosclerotic plaque = settings: 2% cholesterol diet, balloon abrasion, 0.5% DHEA, cited from earlier work
[8] = test system: glucose-6-phosphate dehydrogenase; settings: cited from earlier work
blood platelets = experiment: Arachidonic acid induced platelet aggregation (turbidimetric) in volunteers taking DHEA; assay type: in vivo, human
Source text: as §1, §2
The aggregometer was calibrated such that the test samples, which contained 250,000 platelets/μl fluid, allowed 0% light transmission while Platelet Poor Plasma, which is essentially devoid of platelets, allowed 100% light transmission. […]
as §3, with “inhibitors. […]” for “inhibitors.”

aortic fatty streaks = settings: 0.5% cholesterol and 0.5% DHEA diet; two months; cited from earlier work
[9] = Serum DHEA and DHEA-S levels by radio-immunoassay (RIA), oral DHEA in normal male volunteers; assay type: in vivo; settings: human, 300 mg/day, DHEA group, 300 mg per day orally (100 mg three times a day), second week, read-out: mean serum DHEA level
Method: In vivo experimentation has been conducted with DHEA using a test group of ten male human being subjects. The in vivo experimentation comprised a double blind placebo controlled trial where ten normal male volunteers whose ages ranged between 22 and 37 years old were randomly divided into two five membered groups where the average age for each group was 25 years. In the in vivo experiment, the DHEA group received 300 mg of DHEA per day in the form of 100 mg capsules taken orally three times a day. The placebo group took placebo capsules which looked identical to the capsules containing DHEA three times a day. The DHEA and placebo capsules were prepared by the investigational pharmacy at the Medical College of Virginia and the code identifying which patients took DHEA and which took placebo was maintained by the pharmacy until the study was completed such that neither the patients nor the investigators were aware of who was taking DHEA or placebo. Each of the participants in the trial were told not to alter their lifestyles for the duration of the study and at the conclusion of the experiment each participant said that they had not done so. […]
Serum DHEA and DHEA-S levels for the patients was determined before the experiment began and at several later times during the experiment. […]

intracellular sulfatases = settings: through the action of intracellular sulfatases; cited from earlier work

O=[N+]([O-])c1cc(Cl)cc([N+](=O)[O-])c1 [CDNB, 1-chloro-3,5-dinitrobenzene]
GSH content of platelets (platelets [1]): chemically depletes GSH | HMPS pathway stimulation by GSH-depleted platelets (platelets [1]): do not stimulate the HMPS pathway | cytoskeletal protein polymerization of GSH-depleted platelets (platelets [1]): faster cytoskeletal protein oxidative polymerization but reversible aggregation | sensitivity of GSH-depleted platelets to oxidants (platelets [1]): more sensitive to oxidants | aggregation of GSH-depleted platelets (platelets [1]; higher inducer concentrations): aggregate normally | aggregation of GSH-depleted platelets (platelets [1]; low inducer concentrations, depending on the inducer): increased or depressed aggregation

CC12CCC3C(CC=C4CC(OS(=O)(=O)O)CCC43C)C1CCC2=O (stereo not drawn) [DHEA-S, dehydroepiandrosterone-sulfate]
T1/2MAX and LAG vs pre-incubation time (platelets [2]; 3.3 μM DHEA-S (FIG. 5)): the greater the increase in T1/2MAX and LAG times | T1/2MAX and LAG vs baseline (platelets [2]; 3.3 μM DHEA-S, 0 time pre-incubation (FIG. 5)): did increase the T1/2MAX and LAG from baseline | aggregation after 5.0 minute pre-incubation (platelets [2]; 3.3 μM DHEA-S, 5.0 minutes, in most cases (FIG. 6)): complete inhibition of aggregation | time for T1/2MAX and LAG (platelets [2]; 10.0 μM DHEA-S, three minutes incubation): not determinable | platelet aggregation response to increasing DHEA-S concentration (platelets [2]; incubated three minutes before arachidonic acid, most test samples): dose dependent response | T1/2MAX and LAG times with increasing concentrations (platelets [2]; three minutes incubation (FIG. 4)): increase with increasing concentrations of DHEA-S | thromboxane production ([3]; treatment of blood with DHEA-S): reduce thromboxane production | reduction in mortality from cardiovascular disease [4]: 48%

CC(=O)Oc1ccccc1C(=O)O [aspirin]
incidence of myocardial infarction (myocardial infarction): reduce the incidence of myocardial infarction | initial platelet adhesion (platelets [5]): does not inhibit initial platelet adhesion | platelet's role in atherogenesis (platelets [5]): does not appear to have an affect

C[C@]12CC[C@H](O)CC1=CC[C@@H]1[C@@H]2CC[C@]2(C)C(=O)CC[C@@H]12 [DHEA, dehydroepiandrosterone]
HDL cholesterol levels [6]: without affecting HDL cholesterol levels | LDL cholesterol levels [6]: lower LDL cholesterol levels | body fat mass [6]: reduce body fat mass | muscle mass [6]: increase muscle mass | serum apilipoprotein B levels [6]: lower serum apilipoprotein B levels | tissue sensitivity to insulin [6]: not affect tissue sensitivity to insulin | thromboxane B2 production [7]: unchanged | lung edema and pulmonary hypertension ([7]; platelets pretreated with DHEA): augmentation of the lung edema and pulmonary hypertension | individual reduction of plaque size vs serum level of DHEA (atherosclerotic plaque): inversely proportional to the serum level of DHEA attained | reduction in plaque size (atherosclerotic plaque; vs rabbits not receiving DHEA): 50% | inhibition of glucose-6-phosphate dehydrogenase [8]: specific inhibitor | aggregation response, fifth DHEA patient (blood platelets; 300 mg DHEA per day orally): no change | arachidonic acid induced platelet aggregation, one of the four responding subjects (blood platelets; 300 mg DHEA per day orally): completely inhibited | patients who developed a delay in the rate of aggregation or an increase in the minimal concentration of arachidonic acid required to initiate aggregation (blood platelets; 300 mg DHEA per day orally): four of the five patients | T1/2MAX and LAG curves vs arachidonic acid concentration (blood platelets; one DHEA treated patient, second week vs baseline (FIG. 3)): shifted to the right and upward | platelet aggregation on pre-incubation (platelets [2]; 3.3 μM, pre-incubation 0 to 5.0 minutes (FIG. 6)): prolong and eventually inhibit platelet aggregation | TxB2 produced ([3]; 3.3 μM DHEA): 46.0 ± 4.0 pg/mL | TxB2 produced ([3]; 6.7 μM DHEA): 27.3 ± 1.1 pg/mL | TxB2 produced ([3]; 10.0 μM DHEA): 21.8 ± 1.8 pg/mL | TxB2 produced vs concentration ([3]; increasing concentrations of DHEA (FIG. 7)): proportional decline in TxB2 produced | TxA2 synthesis ([3]; presence of added DHEA (FIG. 7)): net inhibition of TxA2 synthesis | reduction in fatty streak formation, chemical analysis (aortic fatty streaks): 30% | reduction in fatty streak formation, planimetry of the lesions (aortic fatty streaks): 40% | concentration at 336 h [9]: 28.7 ± 13.9 ng/mL | interconversion of DHEA with its sulfate ester (intracellular sulfatases): readily interconvertible
